Results: patent publication US7514419B2, “Phosphorus-containing thyromimetics” (Metabasis Therapeutics, Inc., priority 2003, dated 2009)

Experiments:
ZDF rats [1] = settings: ZDF, rat, in vivo, po, 28 days
Description: Compound 18 was administered at doses up to 5 mg/kg/d. Compound cis-13-1 was administered at doses up to 50 mg/kg/d. We reasoned that the ZDF rat, as a metabolically challenged animal model, would be more sensitive to the potential adverse cardiac effects of thyromimetics than a normal, cholesterol-fed rat. At sacrifice, heart rate, and the first derivative of left ventricular pressure (LV dP/dt) were measured with a Millar catheter inserted into the left ventricle.

cholesterol-fed rats = test: Circulating TSH, cholesterol-fed rats, 7 days; type: in vivo, rat; settings: cholesterol-fed rats treated for 7 days; 30% decrease of TSH
Description: (§1) Another concern with synthetic thyromimetics is the suppression of the endogenous thyroid axis. Thyroid homeostasis is maintained by the action of thyroid releasing hormone (TRH) and thyroid stimulating hormone (TSH). […] Although this particular side effect has been noted, it has typically been treated with less concern than the cardiac safety issues. […] Therefore previous investigators have measured TSH levels when testing synthetic thyromimetics and have used a 30% decrease of TSH as the denominator in their therapeutic index calculations. […] Therefore, both compounds suppress TSH as doses lower than that required to decrease circulating cholesterol. […] However, 0.2 mg/kg/d of Compound 18 in 28 day treated ZDF rats, decreased TSH levels greater than 90%.

cholesterol-fed rat [2] = settings: ED15 for heart rate compared to ED50 for cholesterol lowering; cited from earlier work
Sprague Dawley (SD) rat = test: Cardiovascular activity in the Sprague Dawley rat, 7 days oral; type: in vivo; settings: SD rats, Compound 18 1 mg/kg, Compound cis-13-1 1-50 mg/kg/day
Description: Method: […] The control group (n=6) was given vehicle only. […] On the 7th day after the start of dosing, animals were anesthetized with Isofluorane and the left ventricle cannulated with a high fidelity catheter tip transducer via the right carotid artery. Left ventricular pressure, its first derivative (LVdP/dt), lead I ECG, and heart rate (HR) triggered off the ECG waveform, were digitally recorded. LV dP/dt is a well accepted measure of ionotropic state. Systolic and diastolic aortic pressures were measured by retracting the catheter into the proximal aorta.

cholesterol fed rats = test: Subacute study in cholesterol fed rats, PO once a day for seven days: cholesterol reduction, heart weight; type: in vivo, rat; settings: 1 mg/kg/day PO once a day for seven days
Description: Methods: […] Compound 13-1-cis and Compound 18 were administered PO once a day for seven days. Serum TSH is measured using an enzyme immunoassay (EIA) kit designed for rat TSH (Amersham Pharmacia Biotech, Arlington Heights, Ill.). Expression levels of liver genes (e.g., the LDL-receptor, apoB, cpt-1, spot14 and apoAI) and heart genes ([…]2, HCN2,Kvl.5, MHCα, MHCβ, Alpha1c) are quantified by Northern blot analysis or by RT-PCR. […] Oligonucleotides specific for the complementary gene sequences are used to make ^32P-labeled probes (Multiprime DNA labeling systems, Amersham Pharmacia Biotech). Following hybridization of the probes to the nylon membranes, radioactivity is assessed on a blue film (Eastman Kodak Co,), and the resulting image quantified using the appropriate software. RT-PCR is performed using an iCycler instrument (Biorad) using appropriate primers by means of standard methodology [[…] et al. (2000) Life Sciences 66: 1683-94]. […] The activities of PEPCK and glucose 6-phosphatase in liver are measured by means of direct enzymatic assays of homogenized liver tissue as described by Andrikopoulos S et al. (1993) Diabetes 42: 1731-1736. Alternatively, expression levels of the corresponding genes are determined by Northern blot analysis or RT-PCR as described above.

cholesterol-fed rat [3] = test: Subacute study in cholesterol-fed rats, IP once-a-day for seven days: serum cholesterol, heart weight, heart mGPDH
Description: The cholesterol-fed rat is an animal model of hypercholesterolemia generated by feeding the animals a diet with high cholesterol content.
Methods: Rats were maintained on a diet containing 1.5% cholesterol and 0.5% cholic acid for 2 weeks prior to initiation of treatment. Serum cholesterol values were assessed and the animals randomized into groups for treatment.

ZDF rats [4] = test: Circulating TSH, ZDF rats, 28 days; type: in vivo, rat; settings: 50 mg/kg/d for 28 days
Description: as §1

Normal rats = test: Hepatic triglyceride content in normal rats infused for 7 days; type: in vivo, rat; settings: normal rats chronically infused for 7 days
Description: Normal rats were chronically infused with Compound 7 for 7 days. Liver triglycerides were analyzed following lipid extraction by the Bligh Dyer method (Bligh EG and Dyer WJ, A rapid method of total lipid extraction and purification. Can J Med Sci. 1959 (August); 37(8):911-7, incorporated herein by reference). Total triglycerides were analyzed in the liver extracts by an enzymatic assay (Thermo Electron Corporation). Total lipid was normalized to initial liver weight and triglyceride content was normalized to liver weight. […] There was a 4% reduction in liver triglycerides for this group and the results were not statistically significant.

[5] = tested on: normal rats maintained on a cholesterol-containing diet; test: Continuous infusion study in rats on a cholesterol-containing diet; settings: continuous infusion 1 mg/kg/day
Description: Screening for thyromimetic activity was performed in normal rats maintained on a cholesterol-containing diet.

ZDF rats [6] = test: Hepatic triglyceride content and steatosis in ZDF rats, oral 28 days; type: in vivo, rat
Description: In other experiments, Compound 7 was orally administered to ZDF rats for 28 days. Liver triglycerides were analyzed as described above. Total liver triglycerides were reduced in the treated animals 42% in the 2.5 mg/kg/d group. […] The hepatic steatosis is a well known and described phenomenon for the ZDF rat, and therefore not attributable to vehicle treatment.

mice = test: Circulating TSH, mice, 77 days; type: in vivo, mouse; settings: 10 mg/kg/d for 77 days
Description: as §1

SMILES	TI for LV dP/dt (ZDF rats [1])	therapeutic index with respect to heart rate (ZDF rats [1])	therapeutic index of TSH levels (cholesterol-fed rats)	therapeutic index (TI) with respect to heart rate increases (cholesterol-fed rat [2])	HR, LV dP/dt and aortic pressure compared to vehicle (Sprague Dawley (SD) rat)	serum cholesterol (cholesterol fed rats)	Cardiac GPDH activity (cholesterol-fed rat [3]; Compound 17 at 1 mg/kg/day, compound 7 only at 100 mg/kg)	therapeutic window (efficacy vs toxicity) (cholesterol-fed rat [3]; cholesterol lowering vs cardiac hypertrophy, induction of heart GPDH)	TSH vs vehicle (ZDF rats [4])	decrease in hepatic triglyceride content (Normal rats) [%]	total cholesterol at day 7 [5]	total cholesterol at day 14 [5]	cardiovascular parameters (heart rate, LV dP/dt, blood pressure) ([5]; day 7 or day 14)	microvesicular steatosis (H&E liver sections) (ZDF rats [6])	TSH (mice)
CC(C)c1cc(Oc2c(Cl)cc(CC(=O)O)cc2Cl)ccc1O [Compound 18, 3,5-dichloro-4-[4′-hydroxy-3′-iso-propylphenoxy]-benzeneacetic acid, reference compound]	0.15	0.4	0.4	40	marked and statistically significant increases	significantly decreased serum cholesterol	–	–	–	–	–	–	–	–	–
Cc1cc(OCP(=O)(O)O)cc(C)c1Cc1ccc(O)c(C(C)C)c1 [Compound 7, [3,5-dimethyl-4-(4′-hydroxy-3′-iso-propylbenzyl)phenoxy]-methylphosphonic acid]	–	–	–	–	–	–	trend towards increased heart GPDH activity	10-to 100 fold	no statistically significant difference from vehicle	64	cholesterol lowering effects	cholesterol lowering effects	no changes in any of the cardiovascular parameters	dose dependent reduction in the microvesicular steatosis	no decrease in TSH was observed
